# Tests used:
# human 5-HT7 receptor [1] = biological target: T1, human 5-HT7 receptor (Homo sapiens (Human), UniProt P34969); assay: Test 1: binding activity for human 5-HT7 receptor ([3H]SB-269970, CHO cell membrane fraction); details: [3H]SB-269970, room temperature 60 minutes
# Description: (§1) Ki value was evaluated from dissociation constant which was calculated from saturated binding tests, and a substrate concentration, and it was used as an index for binding affinity.
# human D2 receptor = human D2 receptor (Homo sapiens (Human), UniProt P14416); assay: Test 1: binding activity for human D2 receptor ([3H]Spiperone, CHO cell membrane fraction); details: [3H]Spiperone, room temperature 60 minutes
# Description: as §1
# [2] = Test 3-1: metabolic stability test in human hepatic microsome; format: in vitro ADME; details: microsome 0.1 mg/mL, test compound 0.1 μmol/L, 37° C., 30 minutes
# Description: Test 3-1: Metabolic Stability Test in Human Hepatic Microsome
# The metabolic stability of the present compound in human hepatic microsome was evaluated as mentioned below. Human hepatic microsome was obtained from Xenontech. Human hepatic microsome, NADPH, and each test compound were mixed in 25 mmol/L phosphate buffer solution (pH 7.4) to reach the following concentrations as shown below, and the mixture was incubated at 37° C. for 30 minutes. • Human hepatic microsome: 0.1 mg/mL • NADPH: 3.2 mmol/L • Test compound: 0.1 μmol/L
# The residual ratio of test compound in each sample after 30 minutes was measured by LC-MS, and the metabolic stability in human hepatic microsome was calculated from the following formula. Metabolic stability in human hepatic microsome (mL/min/mg protein)=−LN (residual ratio)/30/0.1
# hERG channel = hERG channel (Homo sapiens (Human), UniProt Q12809); assay: Test 5: inhibitory activity for hERG channel (whole cell patch clamp, hERG-CHO cells); format: cell-based; details: hERG-CHO cells, auto patch clamp
# Description: Test 5: Evaluation of Inhibitory Activity for hERG Channel
# Inhibitory activity of the present compound for hERG channel was measured by whole cell patch clamp method with an auto patch clamp system using CHO cells in which hERG channel involved in human rapidly activating delayed rectifier potassium current (IKr) was forcibly expressed.
# hERG-CHO cells purchased from ChanTest Cop. were cultured in a CO2 incubator at 37° C., and dissociated from a flask with trypsin shortly before the measurement of hERG current to prepare a cell suspension.
# The cell suspension, the extracellular fluid, the intracellular fluid, and the measurement plate were set in an auto patch clamp system, and hERG current was measured by whole cell patch clamp method. […] Each pulse interval was 15 seconds. The data analysis was carried out with Qube Assay Software (Sophion Sophion). The test was carried out by applying incrementally 4 concentrations of each test compound, and the average of the maximum peak tail currents which were obtained from the last 3 stimulations in each concentration was determined as the evaluated data.
# human 5-HT7 receptor [3] = biological target: T1, human 5-HT7 receptor; assay: Test 2: antagonist activity for human 5-HT7 receptor (aequorin luminescence, CHO-K1 cells); format: cell-based; details: Gα16
# Description: Test 2: Evaluation of Antagonist Activity for Human 5-HT2A Receptor and Human 5-HT7 Receptor
# Aequorin, Gα 16 protein, and each receptor were transiently expressed in CHO-K1 cells (Chinese hamster ovary). The cells were cultivated in a CO2 incubator at 37° C. overnight, seeded into a 384-well plate, and stood at room temperature for 2 hours. Each compound dissolved in DMSO was added thereto, and changes in luminescence were measured by FDSS/μCELL drug discovery screening support system (Hamamatsu Photonics K.K.). As for antagonist activity, inhibitory activity of each compound was calculated by setting the luminescence level of wells to which 10 μmol/L endogenous ligand was added as 100%.
# Chain of human D2 receptor (P14416 whole entry): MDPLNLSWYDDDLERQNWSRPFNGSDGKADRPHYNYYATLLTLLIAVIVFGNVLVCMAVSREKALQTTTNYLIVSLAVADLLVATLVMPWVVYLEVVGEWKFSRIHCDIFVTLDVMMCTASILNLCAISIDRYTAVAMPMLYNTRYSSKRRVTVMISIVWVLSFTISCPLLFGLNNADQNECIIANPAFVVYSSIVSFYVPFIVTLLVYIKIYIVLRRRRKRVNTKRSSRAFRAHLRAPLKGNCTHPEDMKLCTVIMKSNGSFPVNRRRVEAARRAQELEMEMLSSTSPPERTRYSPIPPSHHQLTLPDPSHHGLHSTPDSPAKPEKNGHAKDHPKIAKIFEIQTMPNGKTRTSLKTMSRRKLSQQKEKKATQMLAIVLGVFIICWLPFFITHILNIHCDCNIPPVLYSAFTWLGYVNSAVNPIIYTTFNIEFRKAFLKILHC
# T1 sequence (P34969 whole entry): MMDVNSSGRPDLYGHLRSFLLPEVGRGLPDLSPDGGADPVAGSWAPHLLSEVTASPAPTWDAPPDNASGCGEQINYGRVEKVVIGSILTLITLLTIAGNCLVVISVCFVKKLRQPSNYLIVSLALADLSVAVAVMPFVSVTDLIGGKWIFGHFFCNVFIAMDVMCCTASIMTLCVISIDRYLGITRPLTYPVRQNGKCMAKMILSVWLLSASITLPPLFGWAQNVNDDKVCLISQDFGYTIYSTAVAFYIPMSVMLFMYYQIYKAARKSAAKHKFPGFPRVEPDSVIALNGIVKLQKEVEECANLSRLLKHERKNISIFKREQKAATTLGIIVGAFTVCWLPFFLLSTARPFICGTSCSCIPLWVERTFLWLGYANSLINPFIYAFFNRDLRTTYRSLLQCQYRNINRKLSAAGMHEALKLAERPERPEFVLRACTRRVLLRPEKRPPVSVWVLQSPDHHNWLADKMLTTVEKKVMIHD
# Chain of hERG channel (Q12809 whole entry): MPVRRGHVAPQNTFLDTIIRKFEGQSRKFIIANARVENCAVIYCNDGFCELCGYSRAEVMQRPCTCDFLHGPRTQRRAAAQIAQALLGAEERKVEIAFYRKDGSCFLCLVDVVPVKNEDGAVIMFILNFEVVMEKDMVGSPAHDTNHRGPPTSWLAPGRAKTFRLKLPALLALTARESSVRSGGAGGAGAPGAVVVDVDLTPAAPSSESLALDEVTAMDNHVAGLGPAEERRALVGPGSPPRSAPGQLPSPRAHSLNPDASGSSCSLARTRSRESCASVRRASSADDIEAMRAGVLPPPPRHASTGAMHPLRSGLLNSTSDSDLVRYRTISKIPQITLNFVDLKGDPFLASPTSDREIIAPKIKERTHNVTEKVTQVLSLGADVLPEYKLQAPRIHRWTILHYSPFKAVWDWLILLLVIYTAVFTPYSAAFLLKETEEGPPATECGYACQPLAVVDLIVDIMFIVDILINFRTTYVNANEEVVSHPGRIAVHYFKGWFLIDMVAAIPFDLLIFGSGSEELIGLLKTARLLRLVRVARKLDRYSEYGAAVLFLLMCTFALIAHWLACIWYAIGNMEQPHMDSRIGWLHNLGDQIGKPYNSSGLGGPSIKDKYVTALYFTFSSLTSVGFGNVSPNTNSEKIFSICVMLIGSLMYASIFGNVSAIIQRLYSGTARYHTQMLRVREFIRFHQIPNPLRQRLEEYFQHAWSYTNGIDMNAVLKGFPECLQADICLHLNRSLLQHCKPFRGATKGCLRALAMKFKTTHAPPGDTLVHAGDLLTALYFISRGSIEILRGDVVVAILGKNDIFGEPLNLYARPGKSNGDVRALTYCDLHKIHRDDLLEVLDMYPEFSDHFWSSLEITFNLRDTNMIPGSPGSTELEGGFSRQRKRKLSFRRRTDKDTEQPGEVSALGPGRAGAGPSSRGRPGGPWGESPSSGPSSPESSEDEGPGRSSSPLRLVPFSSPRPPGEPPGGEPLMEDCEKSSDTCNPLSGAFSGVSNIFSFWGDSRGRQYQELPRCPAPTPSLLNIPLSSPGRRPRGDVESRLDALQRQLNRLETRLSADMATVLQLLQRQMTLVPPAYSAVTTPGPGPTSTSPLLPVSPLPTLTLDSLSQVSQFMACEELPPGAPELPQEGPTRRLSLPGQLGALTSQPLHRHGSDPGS
Structure (SMILES),Ki (human 5-HT7 receptor [1]),Ki (human D2 receptor),Metabolic stability in human hepatic microsome [2],IC50 (hERG channel),IC50 (human 5-HT7 receptor [3])
"CCN(CCN1CCC(c2noc3cc(F)ccc23)CC1)C(=O)C1CN(C)CC1O (stereo not drawn) [Example 75, N-Ethyl-N-{2-[4-(6-fluoro-1,2-benzoisoxazol-3-yl)piperidin-1-yl]ethyl}-4-hydroxy-1-methylpyrrolidine-3-carboxamide]",3.6 nM,124 nM,<0.05 mL/min/mg protein,3800 nM,80 nM
CCN(CCN1CCC(c2noc3cc(F)ccc23)CC1)C(=O)C(C)CO (stereo not drawn) [Example 37],1.1 nM,< 100 nM,<0.05 mL/min/mg protein,> 10000 nM,66 nM
CCN(CCN1CCC(c2noc3cc(F)c(C)cc23)CC1)S(=O)(=O)CCO [Example 58],19.4 nM,> 1000 nM,<0.05 mL/min/mg protein,> 10000 nM,103 nM
CCN(CCN1CCN(c2noc3cc(F)ccc23)CC1)C(=O)C(C)O (stereo not drawn) [Example 27],11.1 nM,2160 nM,<0.05 mL/min/mg protein,> 10000 nM,73 nM
CC(C)N(CCN1CCC(c2noc3cc(F)ccc23)CC1)C(=O)[C@@H](C)O [Example 42],2.5 nM,74 nM,<0.05 mL/min/mg protein,6400 nM,9 nM
CC(C)N(CCN1CCC(c2noc3cc(F)ccc23)CC1)C(=O)[C@H](C)O [Example 41],1.8 nM,< 100 nM,<0.05 mL/min/mg protein,6700 nM,7 nM
"CCN(CCN1CCC(c2noc3cc(F)ccc23)CC1)C(=O)C1CN(C)CCC1O (stereo not drawn) [Example 76, N-Ethyl-N-{2-[4-(6-fluoro-1,2-benzoisoxazol-3-yl)piperidin-1-yl]ethyl}-4-hydroxy-1-methylpiperidine-3-carboxamide]",14.4 nM,193 nM,<0.05 mL/min/mg protein,> 10000 nM,65 nM
CCN(CCN1CCC(c2noc3ccccc23)CC1)C(=O)C(C)O (stereo not drawn) [Example 25],7.7 nM,1390 nM,<0.05 mL/min/mg protein,> 10000 nM,26 nM
CCN(CCN1CCC(c2c[nH]c3cc(F)ccc23)CC1)C(=O)CCO [Example 48],2.7 nM,80 nM,<0.05 mL/min/mg protein,2900 nM,18 nM
CCN(CCN1CCC(c2noc3cc(F)ccc23)CC1)C(=O)C1(O)CCOCC1 [Example 11],5.2 nM,< 100 nM,<0.05 mL/min/mg protein,10500 nM,67 nM
CCN(CCN1CCC(c2noc3cc(F)ccc23)CC1)C(=O)C1(O)CCCN(C(C)=O)C1 (stereo not drawn) [Example 72],10.6 nM,< 100 nM,0.057 mL/min/mg protein,9900 nM,8 nM
"CCN(CCN1CCC(n2ncc3cc(F)ccc32)CC1)C(=O)CCO [Example 2, N-Ethyl-N-{2-[4-(5-fluoro-1H-indazol-1-yl)piperidin-1-yl]ethyl}-3-hydroxypropanamide]",9.3 nM,> 1000 nM,<0.05 mL/min/mg protein,7400 nM,94 nM
CCN(CCN1CCC(c2c[nH]c3cc(F)ccc23)CC1)S(=O)(=O)CCO [Example 62],2.8 nM,104 nM,<0.05 mL/min/mg protein,5400 nM,28 nM
CCN(CCN1CCN(c2noc3ccccc23)CC1)C(=O)C(C)O (stereo not drawn) [Example 26],22.1 nM,> 10000 nM,<0.05 mL/min/mg protein,> 10000 nM,71 nM
CCN(CCN1CCC(c2noc3cc(F)ccc23)CC1)C(=O)C1CN(C(C)=O)CCC1O (stereo not drawn) [Example 74],6.8 nM,138 nM,<0.05 mL/min/mg protein,6700 nM,77 nM
CCN(CCN1CCC(c2noc3cc(F)ccc23)CC1)C(=O)C1CNCCC1O (stereo not drawn) [Example 67],0.9 nM,< 100 nM,<0.05 mL/min/mg protein,> 10000 nM,72 nM
CC(O)C(=O)N(CCN1CCC(c2noc3cc(F)ccc23)CC1)CC1CC1 (stereo not drawn) [Example 30],6.6 nM,153 nM,<0.05 mL/min/mg protein,1200 nM,39 nM
CCN(CCN1CCC(c2noc3cc(F)ccc23)CC1)C(=O)C(O)C(F)(F)F (stereo not drawn) [Example 34],4.6 nM,247 nM,<0.05 mL/min/mg protein,7300 nM,78 nM
CCN(CCCN1CCC(c2noc3cc(F)ccc23)CC1)S(=O)(=O)C(C)CO (stereo not drawn) [Example 56],0.4 nM,< 100 nM,<0.05 mL/min/mg protein,2100 nM,6 nM
CCN(CCN1CCC(n2ncc3cc(F)ccc32)CC1)S(=O)(=O)CCO [Example 63],6.9 nM,532 nM,<0.05 mL/min/mg protein,14500 nM,46 nM
CCN(CCN1CCC(c2c[nH]c3ccccc23)CC1)C(=O)[C@@H](C)O [Example 49],22.6 nM,> 1000 nM,<0.05 mL/min/mg protein,> 10000 nM,16 nM
CCN(CCCN1CCC(c2noc3cc(F)ccc23)CC1)C(=O)[C@H](C)O [Example 38],9.6 nM,352 nM,<0.05 mL/min/mg protein,> 10000 nM,59 nM
CCN(CCN1CCC(c2noc3ccc(F)cc23)CC1)C(=O)[C@H](C)O [Example 45],22.6 nM,> 300 nM,<0.05 mL/min/mg protein,> 10000 nM,49 nM
CC(C)N(CCN1CCC(c2noc3cc(F)ccc23)CC1)C(=O)CCO [Example 35],3.8 nM,< 100 nM,<0.05 mL/min/mg protein,4300 nM,81 nM
CCN(CCN1CCC(c2noc3cc(F)ccc23)CC1)C(=O)C1CCCCC1O (stereo not drawn) [Example 33],1.6 nM,55 nM,0.268 mL/min/mg protein,2200 nM,59 nM
CCN(CCN1CCC(c2c[nH]c3ccccc23)CC1)C(=O)CCO [Example 47],8.9 nM,457 nM,<0.05 mL/min/mg protein,5400 nM,43 nM
CCN(CCN1CCC(c2noc3ccc(C)cc23)CC1)S(=O)(=O)CCO [Example 59],13.6 nM,> 1000 nM,0.079 mL/min/mg protein,> 10000 nM,62 nM
"CCN(CCN1CCC(c2n[nH]c3cc(F)ccc23)CC1)C(=O)C(C)O (stereo not drawn) [Example 19, N-Ethyl-N-{2-[4-(6-fluoro-1H-indazol-3-yl)piperidin-1-yl]ethyl}-2-hydroxypropanamide]",2.3 nM,105 nM,<0.05 mL/min/mg protein,> 10000 nM,61 nM
CCN(CCN1CCC(c2noc3cc(F)ccc23)CC1)C(=O)C1(O)CCNC1 (stereo not drawn) [Example 70],3.7 nM,52 nM,<0.05 mL/min/mg protein,> 10000 nM,9 nM
CCN(CCN1CCC(c2noc3cc(F)ccc23)CC1)C(=O)CC(C)O (stereo not drawn) [Example 10],2.7 nM,< 100 nM,<0.05 mL/min/mg protein,3600 nM,9 nM
